Reference: patent US9499495B2, “Quinazolines and azaquinazolines as dual inhibitors of RAS/RAF/MEK/ERK and PI3K/AKT/PTEN/mTOR pathways” (Asana Biosciences, LLC, priority 2013, dated 2016)

Legend:
pERK in A375 cells = assay: In Cell Western (ICW) assay, pERK in A375 cells; format: cell-based; conditions: Homo sapiens, A-375, 3 h treatment
Description: Cell lines A375, A2058 and RKO obtained from the ATCC as provided above, were grown, and after attaining ˜80% confluency were trypsinized, centrifuged and resuspended in fresh media. The cells were seeded at the specified density (20,000 to 50,000) in a 96-well format black-well clear bottom plate (Corning) and incubated overnight at 37° C. in a 5% CO2 incubator. The next day, compound dilutions of test compounds were prepared in 100% DMSO followed by dilutions in respective media. Treatment of test compounds was performed for 3 h at 37° C. in 5% CO2 incubator. Following 3 h drug treatment, the conditional media was discarded and the cells were washed once with cPBS (PBS containing 0.1% magnesium chloride hexahydrate and 0.1% anhydrous calcium chloride) and fixed with 4% paraformaldehyde in cPBS for 1 h at rt. After fixing, the cells were given three washes using cPBST (cPBS containing 0.1% Triton™ X-100 reagent) and then blocked using blocking solution (5% skimmed milk powder or 5% BSA prepared in cPBST) for 2 h at rt with shaking at 300 rpm. The cells were again washed thrice with cPBST and incubated with primary antibody phospho-p44/42 MAPK(Erk1/2)(Thr202/204) antibody (Cell Signaling, Catalog # 9101L), phospho S6 ribosomal protein (Cell Signaling, Catalog #4858L), phospho AKT (Thr 308) (Cell Signaling, Catalog #9275) or phospho AKT (Ser 473) (Cell Signaling, Catalog #4060L) in specified dilutions (1:500-1:2500), prepared in respective blocking solutions, in a racker overnight at 4° C. The next day, the cells were washed with 1× Delfia® wash buffer (4×1 wash) and incubated with secondary antibody (Delfia®-Eu-N1 labeled anti-rabbit antibody; PerkinElmer, Catalog #AD0105; dilutions: 1:2000 to 1:6000 in Delfia® assay buffer (PerkinElmer, Catalog #1244-111)) for 2 h at rt in the dark at 300 rpm. The cells were then given four washes with 1× Delfia® wash buffer and incubated with Wallac Delfia® Enhancement solution (100 μL; PerkinElmer, Catalog #1244-105) for 20 min at rt in the dark at 300 rpm. The fluorescence emission was then read at 615 nm with an excitation wavelength of 340 nm using a Victor V5 Fluorometer (Perkin Elmer, US). The cells were then washed once with 1×cPBS and incubated with 100 μL of 0.5 mg/mL of Hoechst 33258 dye prepared in cPBS and read at 460 nm with 355 nm excitation, thereby evaluating the correction factor.
The % inhibition for the test compounds of formula (I) (new chemical entities (NCEs)) was calculated keeping DMSO control as 0% and the IC50 values were determined using sigmoidal dose response curve fit in GraphPad Prism® v5 software.

mTOR kinase = target: T1, mTOR kinase (Homo sapiens, UniProt P42345); assay: mTOR kinase TR-FRET assay; format: biochemical
T1 construct: purchased Millipore, US
Outline: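 TR-FRET with ULight-p70 S6K (Thr 389) peptide (50 nM) and 20 μM ATP in 50 mM HEPES pH 7.5, 1 mM EGTA, 3 mM MnCl2; compound pre-incubated with enzyme before substrate addition, reaction at rt, EDTA-stopped. Eu anti-phospho antibody read 665/615 nm; IC50 from sigmoidal dose-response fit.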

B-RAFV600E = target: T2, B-RAFV600E (Homo sapiens, UniProt P15056, V600E); assay: B-RAFV600E radiometric assay; format: biochemical; conditions: read-out: Kinase assay B-Raf
T2 construct: purchased Millipore, USA 14-557
Outline: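 B-RAFV600E was preincubated 45 min at rt with compound in 1% DMSO. MEK-K97M (0.5 μg), 5 μM final cold ATP and [γ-32P]ATP were then added for 2 h at rt. Phosphorylated MEK was captured on P81 paper and scintillation-counted; IC50 came from a sigmoidal dose-response fit.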

A375 cells = assay: XTT assay for cell viability, A375 cells; format: cell-based; conditions: Homo sapiens, A-375, 72 h
Description: Cell lines (A375 ATCC No. CRL-1619, A2058 ATCC No. CRL-11147 and RKO ATCC No. CRL-2577, American Type Culture Collection (ATCC), Manassas Va.) once attaining ˜80% confluency were trypsinized, centrifuged and resuspended in fresh media. Cells (1000-2000/per well) were seeded in 96-well plate and incubated over-night at 37° C. in a 5% CO2 incubator. Compound dilutions were prepared in 100% DMSO followed by dilutions in the respective media. The cells were treated with NCEs for 72 h at 37° C. in 5% CO2 incubator. After 72 h, freshly prepared XTT (1 mg/ml)/PMS (25 μM) solution was added, incubated for 2 to 3 h at 37° C. and the absorbance was measured at 450 nm using an ELISA plate reader. Keeping DMSO control as 100%, the effect of the compound to inhibit the cell proliferation was calculated and the GI50 values were determined using sigmoidal dose response curve fit in GraphPad Prism® v5 software.

T1 sequence (P42345 1362-2549 limits assumed): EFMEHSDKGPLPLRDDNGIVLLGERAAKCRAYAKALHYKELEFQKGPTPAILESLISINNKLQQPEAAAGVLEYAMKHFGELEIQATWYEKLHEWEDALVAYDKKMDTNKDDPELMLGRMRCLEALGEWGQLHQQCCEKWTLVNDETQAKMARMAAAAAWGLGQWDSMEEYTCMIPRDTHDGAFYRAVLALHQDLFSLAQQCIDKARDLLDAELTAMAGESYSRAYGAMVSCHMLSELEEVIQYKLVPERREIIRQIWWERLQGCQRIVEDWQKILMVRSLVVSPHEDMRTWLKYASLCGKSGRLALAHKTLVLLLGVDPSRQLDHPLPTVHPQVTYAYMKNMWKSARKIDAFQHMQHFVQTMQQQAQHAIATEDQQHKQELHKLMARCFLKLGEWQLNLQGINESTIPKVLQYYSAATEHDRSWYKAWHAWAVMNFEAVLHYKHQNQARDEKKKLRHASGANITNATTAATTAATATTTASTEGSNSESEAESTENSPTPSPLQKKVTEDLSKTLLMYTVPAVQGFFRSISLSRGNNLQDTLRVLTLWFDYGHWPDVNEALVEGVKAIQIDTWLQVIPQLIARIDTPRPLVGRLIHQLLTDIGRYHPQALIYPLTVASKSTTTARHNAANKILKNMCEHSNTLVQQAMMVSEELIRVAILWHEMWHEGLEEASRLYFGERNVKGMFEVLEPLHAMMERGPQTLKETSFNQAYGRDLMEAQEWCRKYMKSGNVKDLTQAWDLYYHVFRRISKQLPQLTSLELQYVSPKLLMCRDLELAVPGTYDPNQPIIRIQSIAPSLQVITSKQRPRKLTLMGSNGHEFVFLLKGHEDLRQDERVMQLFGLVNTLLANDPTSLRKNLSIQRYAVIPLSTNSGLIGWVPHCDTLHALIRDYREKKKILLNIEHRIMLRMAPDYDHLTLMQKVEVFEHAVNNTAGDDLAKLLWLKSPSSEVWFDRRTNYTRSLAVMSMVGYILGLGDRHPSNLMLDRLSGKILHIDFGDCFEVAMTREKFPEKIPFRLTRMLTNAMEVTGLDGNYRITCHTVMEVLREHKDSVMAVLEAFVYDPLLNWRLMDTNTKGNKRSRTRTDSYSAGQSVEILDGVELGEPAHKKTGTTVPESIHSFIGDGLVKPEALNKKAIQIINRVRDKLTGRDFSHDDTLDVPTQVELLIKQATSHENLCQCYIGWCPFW
T2 sequence (P15056 416-766 V600E limits assumed): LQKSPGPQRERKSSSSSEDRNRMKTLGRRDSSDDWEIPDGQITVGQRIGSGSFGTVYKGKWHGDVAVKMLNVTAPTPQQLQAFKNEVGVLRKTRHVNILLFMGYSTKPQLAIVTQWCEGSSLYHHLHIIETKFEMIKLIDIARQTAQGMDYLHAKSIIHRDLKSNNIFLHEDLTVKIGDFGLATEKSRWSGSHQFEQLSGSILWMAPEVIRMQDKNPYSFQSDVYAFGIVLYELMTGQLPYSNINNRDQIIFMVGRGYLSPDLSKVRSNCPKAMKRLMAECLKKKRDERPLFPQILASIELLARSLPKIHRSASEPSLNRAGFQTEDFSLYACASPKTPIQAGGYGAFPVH

Compound	IC50 (pERK in A375 cells)	IC50 (mTOR kinase)	IC50 (B-RAFV600E)	IC50 (A375 cells)
COc1cc(-c2cccc(NS(=O)(=O)c3ccccc3F)c2F)cc2c(N3CCOCC3)nc(-c3ccc(N)nc3)nc12 [Example 29, N-(3-(2-(6-aminopyridin-3-yl)-8-methoxy-4-morpholinoquinazolin-6-yl)-2-fluorophenyl)-2-fluorobenzenesulfonamide]	1 to 100 nM	100 to 1000 nM	1 to 100 nM	100 to 1000 nM
COc1cc(-c2cccc(NS(=O)(=O)C(C)C)c2F)cc2c(N3CCOCC3)nc(-c3ccc(N)nc3)nc12 [Example 33, N-(3-(2-(6-aminopyridin-3-yl)-8-methoxy-4-morpholinoquinazolin-6-yl)-2-fluorophenyl)propane-2-sulfonamide]	100 to 1000 nM	100 to 1000 nM	100 to 1000 nM	100 to 1000 nM
COc1cc(-c2cccc(NS(=O)(=O)c3cccs3)c2F)cc2c(N3CCOCC3)nc(-c3ccc(N)nc3)nc12 [Example 38, N-(3-(2-(6-aminopyridin-3-yl)-8-methoxy-4-morpholinoquinazolin-6-yl)-2-fluorophenyl)thiophene-2-sulfonamide]	1 to 100 nM	100 to 1000 nM	1 to 100 nM	100 to 1000 nM
COc1cc(-c2cccc(NS(=O)(=O)CCCF)c2F)cc2c(N3CCOC[C@@H]3C)nc(-c3ccc(N)nc3)nc12 [Example 41, (S)-N-(3-(2-(6-aminopyridin-3-yl)-8-methoxy-4-(3-methylmorpholino)quinazolin-6-yl)-2-fluorophenyl)-3-fluoropropane-1-sulfonamide]	1 to 100 nM	1 to 100 nM	1 to 100 nM	100 to 1000 nM
COc1cc(-c2cccc(NS(=O)(=O)CCCF)c2F)cc2c(N3CCOC[C@@H]3C)nc(-c3cnc(N)nc3)nc12 [Example 45, (S)-N-(3-(2-(2-aminopyrimidin-5-yl)-8-methoxy-4-(3-methylmorpholino)quinazolin-6-yl)-2-fluorophenyl)-3-fluoropropane-1-sulfonamide]	100 to 1000 nM	100 to 1000 nM	100 to 1000 nM	100 to 1000 nM
Nc1ccc(-c2nc(N3CCOCC3)c3cc(-c4cccc(NS(=O)(=O)CCCF)c4F)ccc3n2)cn1 [Example 46, N-(3-(2-(6-aminopyridin-3-yl)-4-morpholinoquinazolin-6-yl)-2-fluorophenyl)-3-fluoropropane-1-sulfonamide]	1 to 100 nM	100 to 1000 nM	1 to 100 nM	100 to 1000 nM
COc1cc(-c2cccc(NS(=O)(=O)c3ccccc3F)c2F)cc2c(N3CCOCC3)nc(-c3cnc(N)nc3)nc12 [Example 47, N-(3-(2-(2-aminopyrimidin-5-yl)-8-methoxy-4-morpholinoquinazolin-6-yl)-2-fluorophenyl)-2-fluorobenzenesulfonamide]	100 to 1000 nM	100 to 1000 nM	1 to 100 nM	100 to 1000 nM
CCOc1cc(-c2cccc(NS(=O)(=O)CCCF)c2F)cc2c(N3CCOCC3)nc(-c3cnc(N)nc3)nc12 [Example 54, N-(3-(2-(2-aminopyrimidin-5-yl)-8-ethoxy-4-morpholinoquinazolin-6-yl)-2-fluorophenyl)-3-fluoropropane-1-sulfonamide]	1 to 100 nM	100 to 1000 nM	1 to 100 nM	100 to 1000 nM
NC(=O)COc1cc(-c2cccc(NS(=O)(=O)CCCF)c2F)cc2c(N3CCOCC3)nc(-c3ccc(N)nc3)nc12 [Example 60, 2-((2-(6-aminopyridin-3-yl)-6-(2-fluoro-3-(3-fluoropropylsulfonamido)phenyl)-4-morpholino-quinazolin-8-yl)oxy)acetamide]	1000 to 10000 nM	1 to 100 nM	1 to 100 nM	1000 to 10000 nM
Nc1ccc(-c2nc(N3CCOCC3)c3cc(-c4cccc(NS(=O)(=O)CCCF)c4F)cc(N4CCCC4)c3n2)cn1 [Example 70, N-(3-(2-(6-aminopyridin-3-yl)-4-morpholino-8-(pyrrolidin-1-yl)quinazolin-6-yl)-2-fluorophenyl)-3-fluoropropane-1-sulfonamide]	100 to 1000 nM	100 to 1000 nM	1 to 100 nM	1 to 100 nM
Nc1ncc(-c2nc(N3CCOCC3)c3cc(-c4cccc(NS(=O)(=O)CCCF)c4F)cc(N4CCCC4)c3n2)cn1 [Example 71, N-(3-(2-(2-aminopyrimidin-5-yl)-4-morphollno-8-(pyrrolidin-1-yl)quinazolin-6-yl)-2-fluorophenyl)-3-fluoropropane-1-sulfonamide]	1 to 100 nM	1 to 100 nM	100 to 1000 nM	100 to 1000 nM
CCCS(=O)(=O)Nc1ccc(F)c(-c2cc(OC)c3nc(-c4ccc(N)nc4)nc(N4CCOCC4)c3c2)c1F [Example 75, N-(3-(2-(6-aminopyridin-3-yl)-8-methoxy-4-morpholinoquinazolin-6-yl)-2,4-difluorophenyl)propane-1-sulfonamide]	1 to 100 nM	1 to 100 nM	1 to 100 nM	100 to 1000 nM
COc1cc(-c2c(F)ccc(NS(=O)(=O)c3c(F)cccc3F)c2F)cc2c(N3CCOCC3)nc(-c3cnc(N)nc3)nc12 [Example 76, N-(3-(2-(2-aminopyrimidin-5-yl)-8-methoxy-4-morpholinoquinazolin-6-yl)-2,4-difluorophenyl)-2,6-difluorobenzenesulfonamide]	100 to 1000 nM	100 to 1000 nM	1 to 100 nM	100 to 1000 nM
COc1cc(-c2c(F)ccc(NS(=O)(=O)c3c(F)cccc3F)c2F)cc2c(N3CCOCC3)nc(-c3ccc(N)nc3)nc12 [Example 77, N-(3-(2-(6-aminopyridin-3-yl)-8-methoxy-4-morpholinoquinazolin-6-yl)-2,4-difluorophenyl)-2,6-difluorobenzenesulfonamide]	100 to 1000 nM	100 to 1000 nM	1 to 100 nM	100 to 1000 nM
COc1cc(-c2c(F)ccc(NS(=O)(=O)c3cc(F)ccc3F)c2F)cc2c(N3CCOCC3)nc(-c3ccc(N)nc3)nc12 [Example 78, N-(3-(2-(6-aminopyridin-3-yl)-8-methoxy-4-morpholinoquinazolin-6-yl)-2,4-difluorophenyl)-2,5-difluorobenzenesulfonamide]	1 to 100 nM	100 to 1000 nM	1 to 100 nM	100 to 1000 nM
CCCS(=O)(=O)Nc1ccc(Cl)c(-c2cc(OC)c3nc(-c4ccc(N)nc4)nc(N4CCOCC4)c3c2)c1F [Example 80, N-(3-(2-(6-aminopyridin-3-yl)-8-methoxy-4-morpholinoquinazolin-6-yl)-4-chloro-2-fluorophenyl)propane-1-sulfonamide]	100 to 1000 nM	100 to 1000 nM	1 to 100 nM	100 to 1000 nM
COc1cc(-c2c(F)ccc(NS(=O)(=O)CCCF)c2F)cc2c(N3CCOCC3)nc(-c3cnc(N)nc3)nc12 [Example 82, N-(3-(2-(2-aminopyrimidin-5-yl)-8-methoxy-4-morpholinoquinazolin-6-yl)-2,4-difIuorophenyl)-3-fluoropropane-1-sulfonamide]	1 to 100 nM	100 to 1000 nM	1 to 100 nM	1 to 100 nM
